Laboratory results as given in ChEMBL document CHEMBL3045057, “2-D QSAR studies of steroidal natural products oleanic acid and their semisynthetic derivatives as potent protein tyrosine phosphatase 1B inhibitors” (Med Chem Res, 2012).

Molecular target: T1, Tyrosine-protein phosphatase non-receptor type 1 (Homo sapiens, UniProt P18031)
T1 sequence (P18031 whole entry): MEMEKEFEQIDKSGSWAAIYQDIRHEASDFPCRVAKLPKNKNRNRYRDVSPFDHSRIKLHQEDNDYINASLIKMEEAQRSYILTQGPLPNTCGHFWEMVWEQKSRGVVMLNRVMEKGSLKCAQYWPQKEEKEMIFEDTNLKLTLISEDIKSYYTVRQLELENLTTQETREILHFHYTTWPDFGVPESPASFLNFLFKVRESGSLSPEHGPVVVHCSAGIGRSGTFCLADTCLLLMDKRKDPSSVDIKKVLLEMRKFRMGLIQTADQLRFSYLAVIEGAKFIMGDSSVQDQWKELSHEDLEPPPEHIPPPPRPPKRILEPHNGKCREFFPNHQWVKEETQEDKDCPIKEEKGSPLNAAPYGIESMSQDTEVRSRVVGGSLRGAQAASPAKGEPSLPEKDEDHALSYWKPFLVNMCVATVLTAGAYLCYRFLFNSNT
Experiment: Inhibition of PTP1B (unknown origin)

SMILES	IC50 (read-out: IC50)	IC50 (read-out: pIC50 (converted))
CC1(C)CC[C@]2(CCCCC(=O)NC(Cc3ccccc3)C(=O)O)CC[C@]3(C)C(=CC[C@@H]4[C@@]5(C)CC[C@H](OCc6ccc(C(=O)O)cc6)C(C)(C)[C@@H]5CC[C@]43C)[C@@H]2C1 (some centres not stated)	150 nM	150 nM
COc1cc(CC(NC(=O)C[C@]23CCC(C)(C)C[C@H]2C2=CC[C@@H]4[C@@]5(C)CC[C@H](O)C(C)(C)[C@@H]5CC[C@@]4(C)[C@]2(C)CC3)C(=O)O)cc(OC)c1 (some centres not stated)	630 nM	630 nM
CC1(C)CC[C@]2(C(=O)OCCC(=O)O)CC[C@]3(C)C(=CC[C@@H]4[C@@]5(C)CC[C@H](O)C(C)(C)[C@@H]5CC[C@]43C)[C@@H]2C1	2100 nM	2100 nM
CC1(C)CC[C@]2(C(=O)O)CC[C@]3(C)C(=CC[C@@H]4[C@@]5(C)CC[C@H](Cc6ccccc6C(=O)O)C(C)(C)[C@@H]5CC[C@]43C)[C@@H]2C1	2720 nM	2720 nM
CC1(C)CC[C@]2(CC(=O)NC(Cc3ccc([N+](=O)[O-])cc3)C(=O)O)CC[C@]3(C)C(=CC[C@@H]4[C@@]5(C)CC[C@H](O)C(C)(C)[C@@H]5CC[C@]43C)[C@@H]2C1 (some centres not stated)	450 nM	450 nM
CSCCC(NC(=O)C[C@]12CCC(C)(C)C[C@H]1C1=CC[C@@H]3[C@@]4(C)CC[C@H](O)C(C)(C)[C@@H]4CC[C@@]3(C)[C@]1(C)CC2)C(=O)O (some centres not stated)	550 nM	550 nM
CC1(C)CC[C@]2(C(=O)OCCCCCCC(=O)O)CC[C@]3(C)C(=CC[C@@H]4[C@@]5(C)CC[C@H](O)C(C)(C)[C@@H]5CC[C@]43C)[C@@H]2C1	880 nM	880 nM
COc1cccc(CC(NC(=O)C[C@]23CCC(C)(C)C[C@H]2C2=CC[C@@H]4[C@@]5(C)CC[C@H](O)C(C)(C)[C@@H]5CC[C@@]4(C)[C@]2(C)CC3)C(=O)O)c1OC (some centres not stated)	660 nM	660 nM
CC1(C)CC[C@]2(C(=O)OCCCCC(=O)O)CC[C@]3(C)C(=CC[C@@H]4[C@@]5(C)CC[C@H](O)C(C)(C)[C@@H]5CC[C@]43C)[C@@H]2C1	1330 nM	1330 nM
COc1ccc(CC(NC(=O)C[C@]23CCC(C)(C)C[C@H]2C2=CC[C@@H]4[C@@]5(C)CC[C@H](O)C(C)(C)[C@@H]5CC[C@@]4(C)[C@]2(C)CC3)C(=O)O)cc1OC (some centres not stated)	820 nM	820 nM
CC1(C)CC[C@]2(C(=O)Nc3ccc(C(=O)O)cc3)CC[C@]3(C)C(=CC[C@@H]4[C@@]5(C)CC[C@H](O)C(C)(C)[C@@H]5CC[C@]43C)[C@@H]2C1	3090 nM	3090 nM
CC1(C)CC[C@]2(C(=O)O)CC[C@]3(C)C(=CC[C@@H]4[C@@]5(C)CC[C@H](Cc6ccccc6)C(C)(C)[C@@H]5CC[C@]43C)[C@@H]2C1	2670 nM	2670 nM
CC1(C)CC[C@]2(C(=O)O)CC[C@]3(C)C(=CC[C@@H]4[C@@]5(C)CC[C@H](OCc6ccccc6C(=O)O)C(C)(C)[C@@H]5CC[C@]43C)[C@@H]2C1	4580 nM	4580 nM
CC1(C)CC[C@]2(C(=O)OCCCCCCCCC(=O)O)CC[C@]3(C)C(=CC[C@@H]4[C@@]5(C)CC[C@H](O)C(C)(C)[C@@H]5CC[C@]43C)[C@@H]2C1	780 nM	780 nM
CC1(C)CC[C@]2(CC(=O)NC(Cc3cnc[nH]3)C(=O)O)CC[C@]3(C)C(=CC[C@@H]4[C@@]5(C)CC[C@H](O)C(C)(C)[C@@H]5CC[C@]43C)[C@@H]2C1 (some centres not stated)	4620 nM	4620 nM
CC1(C)CC[C@]2(C(=O)NC(CCC(=O)O)C(=O)O)CC[C@]3(C)C(=CC[C@@H]4[C@@]5(C)CC[C@H](O)C(C)(C)[C@@H]5CC[C@]43C)[C@@H]2C1 (some centres not stated)	16400 nM	16400 nM
CC1(C)CC[C@]2(CC(=O)NC(Cc3ccc4c(c3)OCO4)C(=O)O)CC[C@]3(C)C(=CC[C@@H]4[C@@]5(C)CC[C@H](O)C(C)(C)[C@@H]5CC[C@]43C)[C@@H]2C1 (some centres not stated)	440 nM	440 nM
CC1(C)CC[C@]2(C(=O)OCCCCCCCCCCC(=O)O)CC[C@]3(C)C(=CC[C@@H]4[C@@]5(C)CC[C@H](O)C(C)(C)[C@@H]5CC[C@]43C)[C@@H]2C1	720 nM	720 nM
CC1(C)CC[C@]2(C(=O)OCCCCCCCCCCCCC(=O)O)CC[C@]3(C)C(=CC[C@@H]4[C@@]5(C)CC[C@H](O)C(C)(C)[C@@H]5CC[C@]43C)[C@@H]2C1	590 nM	590 nM

Further lines, results first:

IC50 (read-out: IC50)	IC50 (read-out: pIC50 (converted))	SMILES
520 nM	520 nM	COc1cccc(CC(NC(=O)C[C@]23CCC(C)(C)C[C@H]2C2=CC[C@@H]4[C@@]5(C)CC[C@H](O)C(C)(C)[C@@H]5CC[C@@]4(C)[C@]2(C)CC3)C(=O)O)c1 (some centres not stated)
570 nM	570 nM	CC1(C)CC[C@]2(CC(=O)NC(Cc3ccccc3)C(=O)O)CC[C@]3(C)C(=CC[C@@H]4[C@@]5(C)CC[C@H](O)C(C)(C)[C@@H]5CC[C@]43C)[C@@H]2C1 (some centres not stated)
590 nM	590 nM	CC1(C)CC[C@]2(CC(=O)NC(CC3=CCc4ccccc43)C(=O)O)CC[C@]3(C)C(=CC[C@@H]4[C@@]5(C)CC[C@H](O)C(C)(C)[C@@H]5CC[C@]43C)[C@@H]2C1 (some centres not stated)
510 nM	510 nM	CC1(C)CC[C@]2(CC(=O)NC(Cc3cccc(Cl)c3)C(=O)O)CC[C@]3(C)C(=CC[C@@H]4[C@@]5(C)CC[C@H](O)C(C)(C)[C@@H]5CC[C@]43C)[C@@H]2C1 (some centres not stated)
3310 nM	3310 nM	CC1(C)CC[C@]2(C(=O)NC(Cc3ccccc3)C(=O)O)CC[C@]3(C)C(=CC[C@@H]4[C@@]5(C)CC[C@H](O)C(C)(C)[C@@H]5CC[C@]43C)[C@@H]2C1 (some centres not stated)
650 nM	650 nM	Cc1ccc(CC(NC(=O)C[C@]23CCC(C)(C)C[C@H]2C2=CC[C@@H]4[C@@]5(C)CC[C@H](O)C(C)(C)[C@@H]5CC[C@@]4(C)[C@]2(C)CC3)C(=O)O)cc1 (some centres not stated)
550 nM	550 nM	Cc1ccccc1CC(NC(=O)C[C@]12CCC(C)(C)C[C@H]1C1=CC[C@@H]3[C@@]4(C)CC[C@H](O)C(C)(C)[C@@H]4CC[C@@]3(C)[C@]1(C)CC2)C(=O)O (some centres not stated)
610 nM	610 nM	CC1(C)CC[C@]2(CC(=O)NC(Cc3ccc(Cl)cc3)C(=O)O)CC[C@]3(C)C(=CC[C@@H]4[C@@]5(C)CC[C@H](O)C(C)(C)[C@@H]5CC[C@]43C)[C@@H]2C1 (some centres not stated)
570 nM	570 nM	CC1(C)CC[C@]2(CC(=O)NC(Cc3ccc(F)cc3)C(=O)O)CC[C@]3(C)C(=CC[C@@H]4[C@@]5(C)CC[C@H](O)C(C)(C)[C@@H]5CC[C@]43C)[C@@H]2C1 (some centres not stated)
560 nM	560 nM	CC1(C)CC[C@]2(CC(=O)NC(Cc3ccccc3Cl)C(=O)O)CC[C@]3(C)C(=CC[C@@H]4[C@@]5(C)CC[C@H](O)C(C)(C)[C@@H]5CC[C@]43C)[C@@H]2C1 (some centres not stated)
600 nM	600 nM	COc1ccc(CC(NC(=O)C[C@]23CCC(C)(C)C[C@H]2C2=CC[C@@H]4[C@@]5(C)CC[C@H](O)C(C)(C)[C@@H]5CC[C@@]4(C)[C@]2(C)CC3)C(=O)O)cc1 (some centres not stated)
530 nM	530 nM	COc1ccccc1CC(NC(=O)C[C@]12CCC(C)(C)C[C@H]1C1=CC[C@@H]3[C@@]4(C)CC[C@H](O)C(C)(C)[C@@H]4CC[C@@]3(C)[C@]1(C)CC2)C(=O)O (some centres not stated)
